According to PMC4763008, “Selective Inhibition of Bakuchicin Isolated from Psoralea corylifolia on CYP1A in Human Liver Microsomes” (Evidence-based Complementary and Alternative Medicine : eCAM, 2016):
“Also recorded” adds a separate entry of the source.

Key:
[1] = target: T1, human recombinant cDNA-expressed CYP1A2 (Homo sapiens, UniProt P05177); test: Inhibition of phenacetin O-deethylation by human recombinant cDNA-expressed CYP1A2; type: biochemical
T1 construct: purchased Corning Gentest (Woburn, MA)
T1 sequence (P05177 1-516): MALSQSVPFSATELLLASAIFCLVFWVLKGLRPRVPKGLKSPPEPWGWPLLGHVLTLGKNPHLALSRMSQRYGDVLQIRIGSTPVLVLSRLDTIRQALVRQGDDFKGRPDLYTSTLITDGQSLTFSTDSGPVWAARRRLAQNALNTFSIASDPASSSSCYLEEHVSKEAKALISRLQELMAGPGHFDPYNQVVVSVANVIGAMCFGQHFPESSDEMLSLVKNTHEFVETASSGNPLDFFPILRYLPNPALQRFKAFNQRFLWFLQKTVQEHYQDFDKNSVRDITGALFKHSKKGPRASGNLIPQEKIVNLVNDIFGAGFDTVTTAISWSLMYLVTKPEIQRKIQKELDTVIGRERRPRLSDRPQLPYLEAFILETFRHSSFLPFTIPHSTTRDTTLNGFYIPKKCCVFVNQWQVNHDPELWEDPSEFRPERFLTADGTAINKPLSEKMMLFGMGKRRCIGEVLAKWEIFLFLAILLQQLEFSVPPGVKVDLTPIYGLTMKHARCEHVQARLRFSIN
Description: (§1) To confirm the selective inhibition of CYP1A by bakuchicin, 10 pmol of human recombinant cDNA-expressed CYP1A1 and CYP1A2 was incubated with bakuchicin at 0.1–50 μM and NGS for 60 min at 37°C after the addition of 80 μM phenacetin as a selective CYP1A substrate. Those were terminated by adding 100 μL acetonitrile containing 0.1% formic acid and 2.5 μL of internal standard solution (5 μM reserpine) in methanol. After mixing and centrifuging at 13,000 ×g for 12 min, a 5 μL aliquot was injected onto a C18 column for LC-MS/MS analysis. CYP1A1 and CYP1A2 activities were determined by phenacetin O-deethylation. The inhibition patterns of bakuchicin on CYP1A in human recombinant cDNA-expressed CYP1A1 and CYP1A2 were confirmed by Michaelis-Menten and secondary plot.
(§2) All measurements were performed using LC-MS/MS in multiple reaction monitoring mode. LC-MS/MS was performed using an Accela™ LC system coupled to a TSQ Vantage triple quadrupole mass spectrometer (Thermo Fisher Scientific Inc., USA) equipped with a HESI-II Spray source. Electrospray ionization was performed in positive mode at a spray voltage of 3,500 V (except for the detection of 6-hydroxy chlorzoxazone). Nitrogen was used as a sheath and auxiliary gas at optimum values of 45 and 20 (arbitrary units), respectively. Vaporizer and capillary temperatures were 150 and 300°C, respectively. For LC analysis an Inertsil® ODS-2 (3 μm, 2.1 × 150 mm) column (GL Sciences Inc., Torrance, CA) was used. The mobile phase consisted of acetonitrile (mobile phase A) and water (mobile phase B), both of which contained 0.1% formic acid, at a flow rate of 0.22 mL/min at 30°C.
(§3) All incubations were performed in duplicate, and data are presented as means. IC50 values (the concentration of inhibitor causing a 50% inhibition in enzyme activity) were obtained using percent activity versus log[I] concentration plots. Kinetic parameters were estimated by curve fitting using SigmaPlot (version 12.0, Systat Software, Inc.).

[2] = target: T2, human recombinant cDNA-expressed CYP1A1 (Homo sapiens, UniProt P04798); test: Inhibition of phenacetin O-deethylation by human recombinant cDNA-expressed CYP1A1; type: biochemical
T2 construct: purchased Corning Gentest (Woburn, MA)
T2 sequence (P04798 1-512): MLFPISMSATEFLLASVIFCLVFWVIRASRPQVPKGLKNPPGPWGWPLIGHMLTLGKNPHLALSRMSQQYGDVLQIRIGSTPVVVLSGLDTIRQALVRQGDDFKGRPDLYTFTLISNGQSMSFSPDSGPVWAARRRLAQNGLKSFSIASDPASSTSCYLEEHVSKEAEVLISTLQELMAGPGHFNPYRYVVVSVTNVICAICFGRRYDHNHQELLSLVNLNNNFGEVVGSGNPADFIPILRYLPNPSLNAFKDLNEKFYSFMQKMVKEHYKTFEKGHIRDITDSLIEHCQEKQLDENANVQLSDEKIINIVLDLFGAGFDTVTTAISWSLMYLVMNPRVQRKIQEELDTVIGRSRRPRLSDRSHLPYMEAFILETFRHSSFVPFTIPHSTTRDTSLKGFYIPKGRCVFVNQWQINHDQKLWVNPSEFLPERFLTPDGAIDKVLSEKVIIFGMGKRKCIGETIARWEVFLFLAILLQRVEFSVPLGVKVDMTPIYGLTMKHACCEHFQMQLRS
Description: as §1, §2, §3

CYP1A = target: T3, CYP1A (Homo sapiens, UniProt P05177); test: Inhibition mode on CYP1A-catalyzed phenacetin O-deethylation in HLMs (Lineweaver-Burk and secondary plot); type: in vitro ADME; details: for inhibition mechanism on CYP1A in HLMs: pooled HLMs, phenacetin O-deethylation, Lineweaver-Burk plot / IC50 shift
T3 sequence (P05177 2-516): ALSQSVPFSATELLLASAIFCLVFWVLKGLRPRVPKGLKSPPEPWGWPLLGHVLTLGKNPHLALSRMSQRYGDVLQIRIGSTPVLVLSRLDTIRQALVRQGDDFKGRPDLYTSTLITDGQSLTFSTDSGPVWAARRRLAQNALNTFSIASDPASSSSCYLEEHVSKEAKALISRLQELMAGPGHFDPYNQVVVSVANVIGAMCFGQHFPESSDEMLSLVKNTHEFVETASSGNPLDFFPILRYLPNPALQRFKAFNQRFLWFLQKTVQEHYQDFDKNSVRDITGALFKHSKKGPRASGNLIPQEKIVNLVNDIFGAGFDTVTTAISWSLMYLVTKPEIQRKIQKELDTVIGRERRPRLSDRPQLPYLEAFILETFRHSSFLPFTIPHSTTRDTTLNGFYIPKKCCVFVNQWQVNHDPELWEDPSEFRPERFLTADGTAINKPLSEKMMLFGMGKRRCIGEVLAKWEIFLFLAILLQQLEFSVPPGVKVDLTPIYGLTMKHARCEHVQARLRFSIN
Description: To characterize the inhibition mode on CYP1A by bakuchicin, 0.5 mg/mL of HLMs was incubated with bakuchicin at 0, 0.2, 0.4, and 0.8 μM in 0.1 M potassium phosphate buffer (pH 7.4) for 60 min at 37°C. Those were terminated by adding 100 μL acetonitrile containing 0.1% formic acid and 2.5 μL of internal standard solution (5 μM reserpine) in methanol. After mixing and centrifuging at 13,000 ×g for 12 min, a 5 μL aliquot was injected onto a C18 column for LC-MS/MS analysis. Phenacetin was used as a probe substrate at 20, 40, or 80 μM. The inhibition pattern was investigated by Michaelis-Menten and its secondary plotting.
as §2, §3

IC50 ([1]; recombinant CYP1A2, 80 μM phenacetin, 60 min, read-out: IC50, CYP1A2-catalyzed phenacetin O-deethylase activity): 1400 nM
Ki ([1]; recombinant CYP1A2, phenacetin 20, 40, 80 μM, 60 min, read-out: Ki on CYP1A2 (secondary plot)): 320 nM
Ki on CYP1A2 relative to Ki on CYP1A1 ([1]; recombinant enzymes): 3 fold
IC50 for CYP1A2 relative to CYP1A1 ([1]; recombinant enzymes, CYP1A2 IC50 higher than CYP1A1 IC50): 7 fold
IC50 ([2]; recombinant CYP1A1, 80 μM phenacetin, 60 min, read-out: IC50, CYP1A1-catalyzed phenacetin O-deethylase activity): 200 nM
Ki ([2]; recombinant CYP1A1, phenacetin 20, 40, 80 μM, 60 min, read-out: Ki on CYP1A1 (secondary plot)): 110 nM
Ki at 60 min (CYP1A; human, pooled human liver microsomes, pH 7.4, probe phenacetin (O-deethylation), phenacetin 20, 40, 80 μM, 60 min incubation): 90 nM
inhibition mechanism on CYP1A in HLMs (CYP1A): reversible competitive inhibitor
Structure (SMILES): O=c1ccc2c(ccc3ccoc32)o1 [Bakuchicin]
inhibition mode on CYP1A2 ([1]; recombinant CYP1A2, Lineweaver-Burk plot): competitive inhibitor; also recorded: competitive inhibition
inhibition mode on CYP1A1 ([2]; recombinant CYP1A1, Lineweaver-Burk plot): competitive inhibitor; also recorded: competitive inhibition
inhibition mechanism on CYP1A in HLMs (CYP1A; listed as bakuchicin): competitive inhibition; also recorded: reversible inhibitor
